Source: ChEMBL document CHEMBL4177563, “The medicinal chemistry of Chikungunya virus” (Bioorg Med Chem, 2017)

Columns and labels:
Chikungunya virus [1] = assay: Antiviral activity against Chikungunya virus LR2006 OPY1 infected in human MRC5 cells after 48 hrs by indirect immunofluorescence analysis; format: functional, organism-based; details: LR2006 OPY1, MRC5, 48 h
Chikungunya virus [2] = assay: Antiviral activity against Chikungunya virus infected in African green monkey Vero cells; format: functional, organism-based
[3] = Selectivity index, ratio of CC50 for African green monkey Vero cells to EC50 for Chikungunya virus; format: toxicity; details: read-out: Ratio CC50/EC50
Chikungunya virus [4] = assay: Antiviral activity against Chikungunya virus 0810bTw infected in BHK-21 cells by RT-qPCR analysis; format: functional, organism-based
[5] = Selectivity index, ratio of CC50 for BHK-21 cells to EC50 for Chikungunya virus 0810bTw; format: toxicity; details: hamster, read-out: Ratio CC50/EC50
Chikungunya virus [6] = assay: Antiviral activity against Chikungunya virus infected in BHK-21 cells by RT-qPCR analysis; format: functional, organism-based
[7] = Selectivity index, ratio of CC50 for BHK-21 cells to EC50 for Chikungunya virus; format: toxicity; details: hamster, read-out: Ratio CC50/EC50
Chikungunya virus [8] = assay: Antiviral activity against Chikungunya virus infected in human U2OS cells by RT-qPCR analysis; format: functional, organism-based
[9] = Selectivity index, ratio of CC50 for BHK-21 cells to EC50 for Chikungunya virus 0611aTw; format: toxicity; details: hamster, read-out: Ratio CC50/EC50
Chikungunya virus [10] = assay: Antiviral activity against Chikungunya virus 0611aTw infected in BHK-21 cells by RT-qPCR analysis; format: functional, organism-based
[11] = Cytotoxicity against BHK21 cells assessed as reduction in cell viability after 16 hrs by CCK-8 assay; format: cell-based, Mesocricetus auratus; details: hamster, BHK-21 cells
[12] = Cytotoxicity against human U2OS cells assessed as reduction in cell viability after 16 hrs by CCK-8 assay; format: cell-based
[13] = Selectivity index, ratio of CC50 for human U2OS cells to EC50 for Chikungunya virus; format: toxicity; details: read-out: Ratio CC50/EC50
[14] = Cytotoxicity against human Huh7.5 cells in presence of ATP by Celltiter-Glo assay; format: cell-based
[15] = Selectivity index, ratio of CC50 for BHK21 cells to EC50 for Chikungunya virus; format: toxicity; details: hamster, BHK-21 cells; read-out: Ratio CC50/EC50
[16] = Cytotoxicity against BHK21 cells in presence of ATP by Celltiter-Glo assay; format: cell-based, Mesocricetus auratus; details: hamster, BHK-21 cells
Chikungunya virus [17] = assay: Antiviral activity against Chikungunya virus LR2006-OPY1 infected in BHK21 cells after 48 hrs by luciferase reporter gene assay; format: functional, organism-based; details: LR2006-OPY1, BHK-21, 48 h
Chikungunya virus [18] = assay: Antiviral activity against Chikungunya virus LR2006-OPY1 infected in human Huh7.5 cells after 48 hrs by luciferase reporter gene assay; format: functional, organism-based; details: LR2006-OPY1, Huh7.5, 48 h
[19] = Selectivity index, ratio of CC50 for human Huh7.5 cells to EC50 for Chikungunya virus; format: toxicity; details: read-out: Ratio CC50/EC50
Chikungunya virus [20] = assay: Antiviral activity against Chikungunya virus at 0.006 to 300 uM by cell based luciferase reporter gene assay relative to control; format: functional
Chikungunya virus [21] = assay: Antiviral activity against Chikungunya virus infected in human Huh-7 cells assessed as reduction in viral load at 10 uM; format: functional
Dengue virus [22] = assay: Antiviral activity against Dengue virus infected in human K562 cells assessed as reduction in viral load at 1 uM; format: functional
Dengue virus [23] = assay: Antiviral activity against Dengue virus infected in human Huh-7 cells assessed as reduction in viral load at 1 uM; format: functional
Chikungunya virus [24] = assay: Antiviral activity against Chikungunya virus KC969207 infected in African green monkey Vero cells after 48 hrs by MTT dye-based assay; format: functional, organism-based
[25] = Selectivity index, ratio of CC50 for African green monkey Vero cells to IC50 for Chikungunya virus KC969207; format: toxicity; details: read-out: Ratio CC50/IC50
Chikungunya virus [26] = assay: Antiviral activity against Chikungunya virus C347 infected in African green monkey Vero cells assessed as inhibition of viral-induced cytopathic effect after 2 days by microscopic analysis; format: functional, organism-based; details: 48 h
[27] = Cytotoxicity against African green monkey Vero cells assessed as reduction in cell viability after 4 days by MTT assay; format: cell-based; details: chlorocebus sabaeus
Chikungunya virus [28] = assay: Antiviral activity against Chikungunya virus infected in BHK21 cells assessed as reduction in plague formation at 1 uM after 24 hrs relative to control; format: functional; details: BHK-21, 24 h
[29] = Selectivity index, ratio of CC50 for African green monkey Vero cells to IC50 for Chikungunya virus nsP2 protease; format: toxicity; details: read-out: Ratio CC50/IC50
Vero = assay: Cytotoxicity against African green monkey Vero cells assessed as reduction in cell viability measured on day 5 post dose by MTS/PMS based microscopic analysis; details: chlorocebus sabaeus
Chikungunya virus [30] = assay: Antiviral activity against Chikungunya virus 899 infected in African green monkey Vero cells assessed as inhibition of virus-induced cytopathogenic effect measured on day 5 post infection by MTS/PMS based microscopic analysis; format: functional, organism-based; details: Chikungunya virus, 899, Vero, 120 h

CCOC(=O)c1c(C[S+]([O-])c2ccccc2)n(C)c2cc(Br)c(O)c(CN(C)C)c12 (stereo not given)
IC50 (Chikungunya virus [1]): 54.5 µM

C/C(=C\C(=O)O[C@@H]1[C@H](C)C[C@H]2O[C@]1(O)[C@@H](O)[C@H]1CC[C@H](O1)C(C)(C)/C=C/[C@H](C)C2=O)C(C)O (stereo not given in full)
EC50 (Chikungunya virus [2]): 34 µM | selectivity ratio [3]: 3.2

CC(=O)Oc1ccccc1C(=O)Nc1ncc([N+](=O)[O-])s1 [NITAZOXANIDE]
EC50 (Chikungunya virus [4]): 4.95 µM | selectivity ratio [5]: 5.05 | EC50 (Chikungunya virus [6]): 2.96 µM | selectivity ratio [7]: 8.45 | EC50 (Chikungunya virus [8]): 3.01 µM | selectivity ratio [9]: 12.8 | EC50 (Chikungunya virus [10]): 1.96 µM | CC50 at 16 h [11]: 25 µM | CC50 at 16 h [12]: 25 µM | selectivity ratio [13]: 8.31

CC(=O)C(C)/C(C)=C/C(=O)O[C@@H]1[C@H](C)C[C@H]2O[C@]1(O)[C@@H](O)[C@H]1CC[C@H](O1)C(C)(C)/C=C/[C@H](C)C2=O (stereo not given in full)
EC50 (Chikungunya virus [2]): 7 µM | selectivity ratio [3]: 8.8

CC1=C(/C=C/C(C)=C/C=C/C(C)=C/C(=O)Nc2ccc(O)cc2)C(C)(C)CCC1 [FENRETINIDE]
CC50 [14]: 15.6 µM | selectivity ratio [15]: 10.3 | CC50 [16]: 31.5 µM | EC50 (Chikungunya virus [17]): 3.1 µM | EC50 (Chikungunya virus [18]): 0.5 µM | selectivity ratio [19]: 29.9 | Activity (Chikungunya virus [20]): 65%

O=C1c2c(O)ccc([N+](=O)[O-])c2C(=O)c2c([N+](=O)[O-])ccc(O)c21
Activity (Chikungunya virus [21]): 1 log10PFU/ml | Activity (Dengue virus [22]): >1 log10PFU/ml | Activity (Dengue virus [23]): >1 log10PFU/ml

NC(=O)c1ncn([C@@H]2O[C@H](CO)[C@@H](O)[C@H]2O)n1 [RIBAVIRIN]
IC50 (Chikungunya virus [24]): 3.06 µM | selectivity ratio [25]: 529 | EC50 (Chikungunya virus [26]): 341 µM | CC50 at 96 h [27]: 1620 µM

C[C@H]1O[C@@H](O[C@H]2CC[C@@]3(C)[C@H](CC[C@@H]4[C@@H]3C[C@@H](O)[C@]3(C)[C@@H](C5=CC(=O)OC5)CC[C@]43O)C2)C[C@H](O)[C@@H]1O[C@H]1C[C@H](O)[C@H](O[C@H]2C[C@H](O)[C@H](O[C@@H]3O[C@H](CO)[C@@H](O)[C@H](O)[C@H]3O)[C@@H](C)O2)[C@@H](C)O1 [DESLANOSIDE]
inhibition at 1 µM (Chikungunya virus [28]): 38.7%

CCOc1ccc(/C=N/NC(=O)/C=C/Cc2ccc(C(C)(C)C)cc2)cc1OCC
selectivity ratio [29]: 32

CCOc1ccc(/C=N/NC(=O)C2CC2c2ccc(C(C)(C)C)cc2)cc1OCC (stereo not given)
selectivity ratio [29]: 14

O=c1cnn([C@@H]2O[C@H](CO)[C@@H](O)[C@H]2O)c(=O)[nH]1 [6-AZAURIDINE]
EC50 (Chikungunya virus [26]): 0.82 µM

CN(C)CC1CCn2c(cc3ccc(C4=C(c5cn(C)c6ccccc56)C(=O)NC4=O)cc32)C1 (stereo not given)
CC50 (Vero): 35 µM | EC50 (Chikungunya virus [30]): > 6 µM
